Test results as given in PubChem BioAssay (NCI).
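Grown in 96-well plates, cells were treated for 48 hours with each compound at five concentrations. Insufficient inhibition: endpoint recorded as highest concentration tested. At the TGI there is no net growth.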 *1 amine or outer side, *2 acyl side, *3 side chain or, on linkers, in order; H or OH if unused. Where a SMILES comes first, the peptide text is derived from it. [ ]: non-standard residue; d: D form. ξ: configuration not given here. X22 = O=C(C(CC(O)CO)O[*:1])[*:2]; Ile(3ξ) = CCC(C)[C@H](N)C(=O)O; NMeV = CN[C@H](C(=O)O)C(C)C; NMeA = CN[C@@H](C)C(=O)O; βAla = NCCC(=O)O

What was measured:
Assay in all cases: NCI-60 cell line screen, 48 h
LXFL 529 NSCLC = system: LXFL 529 NSCLC
SNB-78 CNS = system: SNB-78 CNS
HOP-18 NSCLC = system: HOP-18 NSCLC
DMS 114 small cell lung = system: DMS 114 small cell lung
XF 498 CNS = system: XF 498 CNS
M19-MEL melanoma = system: M19-MEL melanoma
KM20L2 colon = system: KM20L2 colon
DMS 273 small cell lung = system: DMS 273 small cell lung
RXF-631 renal = system: RXF-631 renal

Compound | TGI (LXFL 529 NSCLC) [µM] | TGI (SNB-78 CNS) [µM] | TGI (HOP-18 NSCLC) [µM] | TGI (DMS 114 small cell lung) [µM] | TGI (XF 498 CNS) [µM] | TGI (M19-MEL melanoma) [µM] | TGI (KM20L2 colon) [µM] | TGI (DMS 273 small cell lung) [µM] | TGI (RXF-631 renal) [µM]
CCOC(=O)CC(NCc1ccc(N=Cc2nc3ccc(C(F)(F)F)cc3nc2-c2ccccc2)cc1)C(=O)OCC (stereo not given) | > 100 | > 100 | > 100 | > 100 | 40.5 | > 100 | > 100 | > 100 | 
COC(=O)C1(O)c2ccccc2N=C2C1CCN2C (stereo not given) | > 100 | > 100 | > 100 | > 100 | > 100 |  | > 100 |  | 
COC(=O)N/N=C(/c1nc2ccc([N+](=O)[O-])cc2[nH]c1=O)C(O)c1ccc(OC)c(OC)c1 (stereo not given) | > 100 | > 100 | > 100 | 51.3 | > 100 | > 100 | > 100 | 63.7 | > 100
COC(=O)C(Cc1nc2ccccc2[nH]c1=O)C(=O)C(=O)Nc1ccc(F)cc1 (stereo not given) | 30 |  | > 100 | 80.7 | > 100 | > 100 | > 100 | > 100 | > 100
CCSc1nnc(-c2ccccc2)nc1Cc1ccc(OC)cc1 | > 100 | > 100 | > 100 |  | > 100 | > 100 | > 100 | > 100 | 
COc1ccc(/C=C2\CCC(Cc3ccccc3)(CN(C)C)C2=O)cc1 (stereo not given) | > 100 | > 100 | > 100 | 48.6 |  | 70.7 | 59.6 | 32.5 | 
Cc1ccc2nc3c(C)cc(=O)cc-3sc2c1 | > 100 | > 100 | > 100 | 45.5 |  | 31 | > 100 | > 100 | > 100
COC(=O)/C(=N/NC(C)(C)C)C(C(=O)OC)C(=O)C(=O)Nc1nc2ccc([N+](=O)[O-])cc2s1 (stereo not given) | > 100 | > 100 |  | > 100 | > 100 | > 100 | > 100 |  | 
N#Cc1cn(-c2c3ccccc3nc3ccccc23)c(=O)[nH]c1=O |  | 49.8 |  | 35.4 | 25.2 | 46.1 | 32.2 |  | 
Nc1nc2ncn(CC(O)COC(=O)c3ccccc3)c2c(=O)[nH]1 (stereo not given) | > 100 | > 100 | > 100 | > 100 | > 100 | > 100 | > 100 | > 100 | > 100
CCC(C)[C@@H]1NC(=O)[C@@H]2CCCN2C(=O)C(CC(O)CO)OC(=O)CCNC(=O)[C@H](C)N(C)C(=O)[C@H](C(C)C)N(C)C1=O (stereo not given in full) (cyclo([Ile(3ξ)][NMeV][NMeA][βAla][X22]P)) | > 100 | > 100 |  |  | > 100 | > 100 | > 100 | > 100 | > 100
